Structures can show the parent of a compound that is named as a salt.
These compounds were tested against T1, DPP-IV (Homo sapiens, UniProt P27487) (assay: In vitro assay for dipeptidyl peptidase inhibition). Conditions: n-value given in brackets; read-out: DPP-IV IC50.
T1 construct: purchased Enzyme Systems Products SPE-01
T1 sequence (P27487 whole entry, species assumed): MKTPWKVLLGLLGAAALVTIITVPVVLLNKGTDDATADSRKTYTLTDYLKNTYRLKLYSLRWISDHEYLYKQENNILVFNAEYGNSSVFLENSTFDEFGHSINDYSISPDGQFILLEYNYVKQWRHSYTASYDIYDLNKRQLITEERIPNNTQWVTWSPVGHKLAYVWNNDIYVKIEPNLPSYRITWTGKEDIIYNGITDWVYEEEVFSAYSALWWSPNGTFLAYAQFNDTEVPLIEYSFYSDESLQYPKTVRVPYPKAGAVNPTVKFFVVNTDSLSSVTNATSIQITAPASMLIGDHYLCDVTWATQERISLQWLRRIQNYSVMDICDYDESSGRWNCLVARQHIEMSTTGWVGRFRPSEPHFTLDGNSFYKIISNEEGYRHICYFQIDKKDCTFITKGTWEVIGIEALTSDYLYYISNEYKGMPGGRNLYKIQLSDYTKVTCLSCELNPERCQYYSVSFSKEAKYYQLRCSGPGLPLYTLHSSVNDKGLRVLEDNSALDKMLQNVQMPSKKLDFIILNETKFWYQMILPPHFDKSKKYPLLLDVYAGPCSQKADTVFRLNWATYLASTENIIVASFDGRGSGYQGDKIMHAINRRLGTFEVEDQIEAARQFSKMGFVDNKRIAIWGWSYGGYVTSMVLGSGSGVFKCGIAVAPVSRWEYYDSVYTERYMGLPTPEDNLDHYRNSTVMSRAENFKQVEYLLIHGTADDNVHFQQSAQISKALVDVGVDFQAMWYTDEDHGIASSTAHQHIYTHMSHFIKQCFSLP
Assay type: biochemical
“1-((3S,4S)-4-Amino-1-(4-((R)-3-fluoropyrrolidin-1-yl)-1,3,5-triazin-2-yl)pyrrolidin-3-yl)piperidin-2-onetrifluoroacetate [Example 27]” was tested, and the IC50 was 92.2 nM.
Compound “1-((3S,4S)-4-Amino-1-(6-(pyrrolidin-1-yl)pyrimidin-4-yl)pyrrolidin-3-yl)pyrrolidin-2-one(dihydrochloride) [Example 31]” has an IC50 of 483 nM.
For `Cc1nc(N2C[C@H](N)[C@@H](N3CC(F)(F)CCC3=O)C2)cc(N2CCC(F)(F)C2)n1` [Example 3, 1-((3S,4S)-4-amino-1-(6-(3,3-difluoropyrrolidin-1-yl)-2-methylpyrimidin-4-yl)pyrrolidin-3-yl)-5,5-difluoropiperidin-2-one], the IC50 was 12.6 nM.
Work on `N[C@H]1CN(c2cc(N3CCc4nocc4C3)ncn2)C[C@@H]1N1CC(F)(F)CCC1=O` [Example 4, 1-((3S,4S)-4-amino-1-(6-(6,7-dihydroisoxazolo[4,3-c]pyridin-5(4H)-yl)pyrimidin-4-yl)pyrrolidin-3-yl)-5,5-difluoropiperidin-2-one] yielded an IC50 of 6.08 nM.
`N[C@H]1CN(c2cc(N3CCc4nocc4C3)ncn2)C[C@@H]1N1CCCCC1=O` [Example 5, 1-((3S,4S)-4-Amino-1-(6-(6,7-dihydroisoxazolo[4,3-c]pyridin-5(4H)-yl)pyrimidin-4-yl)pyrrolidin-3-yl)piperidin-2-one dihydrochloride] showed an IC50 of 11.8 nM.
`N[C@H]1CN(c2cc(-c3ccccc3)ncn2)C[C@@H]1N1CCCC1=O` [Example 6, 1-((3S,4S)-4-Amino-1-(6-phenylpyrimidin-4-yl)pyrrolidin-3-yl)pyrrolidin-2-one dihydrochloride] showed an IC50 of 488 nM.
Work on `N[C@H]1CN(c2cc(-c3ccccc3)ncn2)C[C@@H]1N1CCCCC1=O` [Example 7, 1-((3S,4S)-4-Amino-1-(6-phenylpyrimidin-4-yl)pyrrolidin-3-yl)piperidin-2-one hydrochloride] yielded an IC50 of 47.4 nM.
`N[C@H]1CN(c2cc(-c3ccc(O)nc3)ncn2)C[C@@H]1N1CCCCC1=O` [Example 8, 1-{(3S,4S)-4-Amino-1-[6-(6-hydroxy-pyridin-3-yl)pyrimidin-4-yl]-pyrrolidin-3-yl}-piperidin-2-one] was tested, and the IC50 was 27.1 nM.
For `COc1ccc(-c2cc(N3C[C@H](N)[C@@H](N4CC(F)(F)CCC4=O)C3)ncn2)cn1` [Example 9, 1-((3S,4S)-4-amino-1-(6-(6-methoxypyridin-3-yl)pyrimidin-4-yl)pyrrolidin-3-yl)-5,5-difluoropiperidin-2-one trifluoroacetate], the IC50 was 27.3 nM.
In the case of `N[C@H]1CN(c2cc(N3CCC(F)(F)C3)ncn2)C[C@@H]1N1CCCCC1=O` [Example 10, 1-((3S,4S)-4-Amino-1-(6-(3,3-difluoropyrrolidin-1-yl)pyrimidin-4-yl)pyrrolidin-3-yl)piperidin-2-onedihydrochloride], the IC50 is reported as 25.5 nM.
`N[C@H]1CN(c2ncnc(N3CCC(F)(F)C3)n2)C[C@@H]1N1CCCCC1=O` [Example 11, 1-{(3S,4S)-4-Amino-1-[4-(3,3-difluoro-pyrrolidin-1-yl)-[1,3,5]triazin-2-yl]-pyrrolidin-3-yl}-piperidin-2-onedihydrochloride] showed an IC50 of 37.4 nM.
Work on `N[C@H]1CN(c2cc(N3CCC(F)(F)C3)ncn2)C[C@@H]1N1CCCC1=O` [Example 12, 1-((3S,4S)-4-Amino-1-(6-(3,3-difluoropyrrolidin-1-yl)pyrimidin-4-yl)pyrrolidin-3-yl)pyrrolidin-2-onedihydrochloride] yielded an IC50 of 522 nM.
`N[C@H]1CN(c2cc(N3CCC(F)(F)C3)nc(C(F)(F)F)n2)C[C@@H]1N1CC(F)(F)CCC1=O` [Example 13, 1-((3S,4S)-4-amino-1-(6-(3,3-difluoropyrrolidin-1-yl)-2-(trifluoromethyl)pyrimidin-4-yl)pyrrolidin-3-yl)-5,5-difluoropiperidin-2-one] showed an IC50 of 56.7 nM.
`N[C@H]1CN(c2cc(N3CCC(F)(F)C3)nc(C(F)(F)F)n2)C[C@@H]1N1CCCCC1=O` [Example 14, 1-((3S,4S)-4-amino-1-(6-(3,3-difluoropyrrolidin-1-yl)-2-(trifluoromethyl)pyrimidin-4-yl)pyrrolidin-3-yl)piperidin-2-one] gave an IC50 of 45.1 nM.
Work on `CCc1nc(N2C[C@H](N)[C@@H](N3CCCCC3=O)C2)cc(N2CCC(F)(F)C2)n1` [Example 15, 1-((3S,4S)-4-amino-1-(6-(3,3-difluoropyrrolidin-1-yl)-2-ethylpyrimidin-4-yl)pyrrolidin-3-yl)piperidin-2-one] yielded an IC50 of 39.8 nM.
`CC(C)c1nc(N2C[C@H](N)[C@@H](N3CCCCC3=O)C2)cc(N2CCC(F)(F)C2)n1` [Example 16, 1-((3S,4S)-4-amino-1-(6-(3,3-difluoropyrrolidin-1-yl)-2-isopropylpyrimidin-4-yl)pyrrolidin-3-yl)piperidin-2-oneformate] was tested, and the IC50 was 136 nM.
With `N[C@H]1CN(c2cc(N3CCC(F)(F)C3)nc(C3CC3)n2)C[C@@H]1N1CCCCC1=O` [Example 17, 1-((3S,4S)-4-amino-1-(2-cyclopropyl-6-(3,3-difluoropyrrolidin-1-yl)pyrimidin-4-yl)pyrrolidin-3-yl)piperidin-2-one] the IC50 was 109 nM.
`CCCc1nc(N2C[C@H](N)[C@@H](N3CCCCC3=O)C2)cc(N2CCC(F)(F)C2)n1` [Example 18, 1-((3S,4S)-4-amino-1-(6-(3,3-difluoropyrrolidin-1-yl)-2-propylpyrimidin-4-yl)pyrrolidin-3-yl)piperidin-2-oneformate] was tested, and the IC50 was 43.3 nM.
Work on `CSc1nc(N2C[C@H](N)[C@@H](N3CCCCC3=O)C2)cc(N2CCC(F)(F)C2)n1` [Example 19, 1-((3S,4S)-4-amino-1-(6-(3,3-difluoropyrrolidin-1-yl)-2-(methylthio)pyrimidin-4-yl)pyrrolidin-3-yl)piperidin-2-one] yielded an IC50 of 74.9 nM.
For `CCSc1nc(N2C[C@H](N)[C@@H](N3CCCCC3=O)C2)cc(N2CCC(F)(F)C2)n1` [Example 20, 1-((3S,4S)-4-amino-1-(6-(3,3-difluoropyrrolidin-1-yl)-2-(ethylthio)pyrimidin-4-yl)pyrrolidin-3-yl)piperidin-2-one], the IC50 was 82.5 nM.
In the case of `N[C@H]1CN(c2ncnc(N3CCC(F)(F)C3)c2F)C[C@@H]1N1CCCCC1=O` [Example 21, 1-((3S,4S)-4-amino-1-(6-(3,3-difluoropyrrolidin-1-yl)-5-fluoropyrimidin-4-yl)pyrrolidin-3-yl)piperidin-2-one], the IC50 is reported as 218 nM.
For `CC(C)(C)c1nc(N2C[C@H](N)[C@@H](N3CCCCC3=O)C2)cc(N2CCC(F)(F)C2)n1` [Example 22, 1-((3S,4S)-4-amino-1-(2-tert-butyl-6-(3,3-difluoropyrrolidin-1-yl)pyrimidin-4-yl)pyrrolidin-3-yl)piperidin-2-one], the IC50 was 832 nM.
With `N[C@H]1CN(c2cc(N3CC[C@H](F)C3)ncn2)C[C@@H]1N1CC(F)(F)CCC1=O` [Example 23, 1-((3S,4S)-4-amino-1-(6-((S)-3-fluoropyrrolidin-1-yl)pyrimidin-4-yl)pyrrolidin-3-yl)-5,5-difluoropiperidin-2-one] the IC50 was 12 nM.
With `N[C@H]1CN(c2ncnc(N3CC[C@H](F)C3)n2)C[C@@H]1N1CC(F)(F)CCC1=O` [Example 24, 1-((3S,4S)-4-amino-1-(4-((S)-3-fluoropyrrolidin-1-yl)-1,3,5-triazin-2-yl)pyrrolidin-3-yl)-5,5-difluoropiperidin-2-one] the IC50 was 47.8 nM.
`N[C@H]1CN(c2ncnc(N3CC[C@H](F)C3)n2)C[C@@H]1N1CCCCC1=O` [Example 25, 1-((3S,4S)-4-Amino-1-(4-((S)-3-fluoropyrrolidin-1-yl)-1,3,5-triazin-2-yl)pyrrolidin-3-yl)piperidin-2-onetrifluoroacetate] showed an IC50 of 80.2 nM.
`Cc1nc(N2CC[C@H](F)C2)cc(N2C[C@H](N)[C@@H](N3CC(F)(F)CCC3=O)C2)n1` [Example 26, 1-((3S,4S)-4-amino-1-(6-((S)-3-fluoropyrrolidin-1-yl)-2-methylpyrimidin-4-yl)pyrrolidin-3-yl)-5,5-difluoropiperidin-2-one] showed an IC50 of 37.3 nM.
With `N[C@H]1CN(c2ncnc(N3C[C@@H](F)[C@@H](F)C3)n2)C[C@@H]1N1CCCCC1=O` [Example 28, 1-((3S,4S)-4-Amino-1-(4-((3R,4S)-3,4-difluoropyrrolidin-1-yl)-1,3,5-triazin-2-yl)pyrrolidin-3-yl)piperidin-2-onetrifluoroacetate] the IC50 was 67.8 nM.
With `N[C@H]1CN(c2ncnc(N3C[C@@H](F)[C@H](F)C3)n2)C[C@@H]1N1CCCCC1=O` [Example 29, 1-((3S,4S)-4-Amino-1-(4-((3R,4R)-3,4-difluoropyrrolidin-1-yl)-1,3,5-triazin-2-yl)pyrrolidin-3-yl)piperidin-2-onetrifluoroacetate] the IC50 was 154 nM.
`N[C@H]1CN(c2ncnc(N3C[C@H](F)[C@@H](F)C3)n2)C[C@@H]1N1CCCCC1=O` [Example 30, 1-((3S,4S)-4-Amino-1-(4-((3S,4S)-3,4-difluoropyrrolidin-1-yl)-1,3,5-triazin-2-yl)pyrrolidin-3-yl)piperidin-2-onetrifluoroacetate] was tested, and the IC50 was 104 nM.
`N[C@H]1CN(c2ncnc(N3CCCC3)n2)C[C@@H]1N1CCCCC1=O` [Example 32, 1-((3S,4S)-4-Amino-1-(4-(pyrrolidin-1-yl)-1,3,5-triazin-2-yl)pyrrolidin-3-yl)piperidin-2-onetrifluoroacetate] showed an IC50 of 91.5 nM.
Work on `Cc1nc(N2C[C@H](N)[C@@H](N3CC(F)(F)CCC3=O)C2)cc(N2CCCC(F)(F)C2)n1` [Example 33, 1-((3S,4S)-4-amino-1-(6-(3,3-difluoropiperidin-1-yl)-2-methylpyrimidin-4-yl)pyrrolidin-3-yl)-5,5-difluoropiperidin-2-onetrifluoroacetate] yielded an IC50 of 97.7 nM.
For `Cc1nc(N2C[C@H](N)[C@@H](N3CCCCC3=O)C2)cc(N2CCCC(F)(F)C2)n1` [Example 34, 1-((3S,4S)-4-amino-1-(6-(3,3-difluoropiperidin-1-yl)-2-methylpyrimidin-4-yl)pyrrolidin-3-yl)piperidin-2-onetrifluoroacetate], the IC50 was 277 nM.
`CC1(O)CCN(c2ncnc(N3C[C@H](N)[C@@H](N4CCCCC4=O)C3)n2)CC1` [Example 35, 1-{(3S,4S)-4-Amino-1-[4-(4-hydroxy-4-methyl-piperidin-1-yl)-[1,3,5]triazin-2-yl]-pyrrolidin-3-yl}-piperidin-2-onetrifluoroacetate] gave an IC50 of 558 nM.

From patent publication US7485641B2, “Substituted 3-amino-pyrrolidino-4-lactams” (Pfizer, Inc., priority 2006, dated 2009)
